In patent US20240083857A1, “2-Methyl-Quinazolines” (Bayer Pharma Aktiengesellschaft, priority 2017, published 2024):
pIC50: −log10 of the molar value. Where two headings read alike, the source gives them in different places.

Assays:
[1] = molecular target: human SOS1 (loading of human K-Ras^G12C-GDP with fluorescent GTP-analog) (Homo sapiens, UniProt Q07889); test: Biochemical assay 3: K-Ras^G12C activation assay by hSOS1 (HTRF); conditions: no GTP; for pIC50: read-out: Assay 3 (KRAS-Activation by SOS no GTP) activity expressed as IC50
[2] = molecular target: Epidermal Growth Factor Receptor (EGFR) (Homo sapiens (Human), UniProt P00533); test: EGFR kinase assay (TR-FRET); type: biochemical; conditions: read-out: EGFR kinase inhibition IC50; for IC50: values given in μM
Procedure, shortened: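 EGFR purified from A431 cells was preincubated with compound 15 min at 22° C in pH 7.0 Hepes buffer with MgCl2, MnCl2 and vanadate before reaction with a biotinylated peptide. After EDTA stop, phosphopeptide was detected by TR-FRET (anti-phosphotyrosine Tb-cryptate, streptavidin-XL665) as the 665/620 nm emission ratio.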

Sequence of Epidermal Growth Factor Receptor (EGFR) (P00533 25-1210): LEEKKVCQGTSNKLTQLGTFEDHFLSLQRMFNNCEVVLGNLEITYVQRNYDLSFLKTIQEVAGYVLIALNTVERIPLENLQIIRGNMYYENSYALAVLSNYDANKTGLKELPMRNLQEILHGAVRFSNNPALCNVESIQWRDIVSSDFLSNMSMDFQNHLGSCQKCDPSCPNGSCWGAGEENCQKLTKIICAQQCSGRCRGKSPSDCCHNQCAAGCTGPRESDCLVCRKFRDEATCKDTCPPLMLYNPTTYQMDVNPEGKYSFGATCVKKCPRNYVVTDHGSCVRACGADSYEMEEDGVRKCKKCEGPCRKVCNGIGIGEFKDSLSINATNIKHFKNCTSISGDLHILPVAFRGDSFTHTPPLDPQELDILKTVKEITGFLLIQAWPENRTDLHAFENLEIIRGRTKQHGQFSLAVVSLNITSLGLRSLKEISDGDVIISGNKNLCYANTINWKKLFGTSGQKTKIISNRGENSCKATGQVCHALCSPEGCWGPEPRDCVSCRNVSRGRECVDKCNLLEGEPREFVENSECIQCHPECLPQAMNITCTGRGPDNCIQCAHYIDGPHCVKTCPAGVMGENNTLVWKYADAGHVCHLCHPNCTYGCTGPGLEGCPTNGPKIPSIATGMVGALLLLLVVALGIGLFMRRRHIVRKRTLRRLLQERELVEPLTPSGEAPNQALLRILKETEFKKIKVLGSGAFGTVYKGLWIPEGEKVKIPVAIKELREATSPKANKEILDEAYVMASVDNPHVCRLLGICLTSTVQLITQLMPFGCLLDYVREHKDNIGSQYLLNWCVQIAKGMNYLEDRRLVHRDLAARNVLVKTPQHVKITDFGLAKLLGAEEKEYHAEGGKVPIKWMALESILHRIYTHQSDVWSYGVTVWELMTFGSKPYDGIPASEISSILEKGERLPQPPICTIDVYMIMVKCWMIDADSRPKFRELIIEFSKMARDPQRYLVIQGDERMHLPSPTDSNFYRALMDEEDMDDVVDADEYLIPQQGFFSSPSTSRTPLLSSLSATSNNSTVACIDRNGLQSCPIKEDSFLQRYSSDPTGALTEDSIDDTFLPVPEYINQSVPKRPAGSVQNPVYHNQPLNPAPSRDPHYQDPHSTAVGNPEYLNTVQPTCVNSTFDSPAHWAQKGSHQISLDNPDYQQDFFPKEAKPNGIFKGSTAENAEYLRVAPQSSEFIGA

Compound	pIC50 [1]	IC50 [2] [µM]	inhibition at 20 µM ([1]; read-out: Assay 3 (KRAS-Activation by SOS no GTP) activity expressed as % inhibition at 20 μM, at 20 μM) [%]	pIC50 ([2]; unit inferred)
COc1cc2nc(C)nc(N[C@H](C)c3ccc(-c4ccccc4CCN)s3)c2cc1OC (stereo in doubt) [Example 357, N-[1-{5-[2-(2-aminoethyl)phenyl]thiophen-2-yl}ethyl]-6,7-dimethoxy-2-methylquinazolin-4-amine]	7.16	> 20	–	–
COc1cc2nc(C)nc(NC(C)c3ccc(-c4ccccc4[C@@H](C)NC(=O)OC(C)(C)C)s3)c2cc1OC (stereo in doubt) [Example 358, tert-butyl {1-[2-(5-{1-[(6,7-dimethoxy-2-methylquinazolin-4-yl)amino]ethyl}thiophen-2-yl)phenyl]ethyl}carbamate]	5.61	> 20	–	–
COc1cc2nc(C)nc(NC(C)c3ccc(-c4ccccc4[C@@H](C)N)s3)c2cc1OC (stereo in doubt) [Example 359, N-[1-(5-{2-[1-aminoethyl]phenyl}thiophen-2-yl)ethyl]-6,7-dimethoxy-2-methylquinazolin-4-amine]	6.52	> 20	–	–
COc1cc2nc(C)nc(NC(C)c3ccc(-c4ccccc4[C@H](C)N)s3)c2cc1OC (stereo in doubt) [Example 360, N-[1-(5-{2-[1-aminoethyl]phenyl}thiophen-2-yl)ethyl]-6,7-dimethoxy-2-methylquinazolin-4-amine]	6.72	> 20	–	–
COc1cc2nc(C)nc(NC(C)c3cccc4c3CCO4)c2cc1OC (stereo not shown) [Example 22, N-[1-(2,3-dihydro-1-benzofuran-4-yl)ethyl]-6,7-dimethoxy-2-methylquinazolin-4-amine]	6.23	> 20	–	–
COc1cc2nc(C)nc(NC(C)c3ccc4c(c3)OCO4)c2cc1OC (stereo not shown) [Example 23, N-[1-(1,3-benzodioxol-5-yl)ethyl]-6,7-dimethoxy-2-methylquinazolin-4-amine]	5.06	> 20	–	–
COc1cc2nc(C)nc(NC(C)c3ccc4c(c3)CCO4)c2cc1OC (stereo not shown) [Example 24, N-[1-(2,3-dihydro-1-benzofuran-5-yl)ethyl]-6,7-dimethoxy-2-methylquinazolin-4-amine]	5.61	> 20	–	–
COc1cc2nc(C)nc(NC(C)c3ccc4c(c3)CCCC4)c2cc1OC (stereo not shown) [Example 25, 6,7-dimethoxy-2-methyl-N-[1-(5,6,7,8-tetrahydronaphthalen-2-yl)ethyl]quinazolin-4-amine]	5.82	> 20	–	–
COc1cc2nc(C)nc(NC(C)c3c(C)nc4ccccn34)c2cc1OC (stereo not shown) [Example 26, 6,7-dimethoxy-2-methyl-N-[1-(2-methylimidazo[1,2-a]pyridin-3-yl)ethyl]quinazolin-4-amine]	5.16	> 20	–	–
COc1cc2nc(C)nc(NC(C)c3csc4ccccc34)c2cc1OC (stereo not shown) [Example 27, N-[1-(1-benzothiophen-3-yl)ethyl]-6,7-dimethoxy-2-methylquinazolin-4-amine]	6.30	> 20	–	–
Cc1nc(N[C@H](C)c2ccccc2)c2cc(N=S(C)(C)=O)ccc2n1 [Example 30, 6-{[dimethyl(oxido)-lambda6-sulfanylidene]amino}-2-methyl-N-[(1R)-1-phenylethyl]quinazolin-4-amine]	5.54	> 20	–	–
Cc1nc(N[C@H](C)c2ccc(F)cc2)c2cc(N=S(C)(C)=O)ccc2n1 [Example 32, 6-{[dimethyl(oxido)-lambda6-sulfanylidene]amino}-N-[(1R)-1-(4-fluorophenyl)ethyl]-2-methylquinazolin-4-amine]	5.59	> 20	–	–
COc1cc2nc(C)nc(NC(C)c3ccc4c(c3)NC(=O)CO4)c2cc1OC (stereo not shown) [Example 34, 6-{1-[(6,7-dimethoxy-2-methylquinazolin-4-yl)amino]ethyl}-2H-1,4-benzoxazin-3(4H)-one]	4.77	> 20	–	–
COc1ccc2cc(C(C)Nc3nc(C)nc4cc(OC)c(OC)cc34)ccc2c1 (stereo not shown) [Example 35, 6,7-dimethoxy-N-[1-(6-methoxy-2-naphthyl)ethyl]-2-methylquinazolin-4-amine]	–	> 20	48	–
COc1cc2nc(C)nc(N[C@H](C)c3cccc(-c4ccc(O)nc4)c3)c2cc1OC [Example 68, 5-(3-{(1R)-1-[(6,7-dimethoxy-2-methylquinazolin-4-yl)amino]ethyl}phenyl)pyridin-2-ol]	6.33	–	–	5.16
COc1cc2nc(C)nc(N[C@H](C)c3cccc(-n4cccn4)c3)c2cc1OC [Example 341, 6,7-dimethoxy-2-methyl-N-{(1R)-1-[3-(1H-pyrazol-1-yl)phenyl]ethyl}quinazolin-4-amine]	4.91	> 20	–	–

Compound	pIC50 [1]	IC50 [2] [µM]	inhibition at 20 µM ([1]; read-out: Assay 3 (KRAS-Activation by SOS no GTP) activity expressed as % inhibition at 20 μM, at 20 μM) [%]	pIC50 ([2]; unit inferred)
COc1cc2nc(C)nc(N[C@H](C)c3cccc(Br)c3)c2cc1OCc1ccccc1 [Example 343, 6-(benzyloxy)-N-[(1R)-1-(3-bromophenyl)ethyl]-7-methoxy-2-methylquinazolin-4-amine]	5.36	> 20	–	–
COc1cc2nc(C)nc(N[C@H](C)c3cccc(-c4cn[nH]c4)c3)c2cc1OCc1ccccc1 [Example 344, 6-(benzyloxy)-7-methoxy-2-methyl-N-{(1R)-1-[3-(1H-pyrazol-4-yl)phenyl]ethyl}-quinazolin-4-amine]	5.73	> 20	–	–
COc1cc2nc(C)nc(N[C@H](C)c3cccc(-c4cn[nH]c4)c3)c2cc1O [Example 345, 7-methoxy-2-methyl-4-({(1R)-1-[3-(1H-pyrazol-4-yl)phenyl]ethyl}amino)quinazolin-6-ol]	4.53	> 20	–	–
COc1cc2nc(C)nc(N[C@H](C)c3cccc(-c4cn[nH]c4)c3)c2cc1OCC1CC1 [Example 346, 6-(cyclopropylmethoxy)-7-methoxy-2-methyl-N-{(1R)-1-[3-(1H-pyrazol-4-yl)phenyl]ethyl}quinazolin-4-amine]	6.24	> 20	–	–
COCCOc1cc2c(N[C@H](C)c3cccc(-c4cn[nH]c4)c3)nc(C)nc2cc1OC [Example 348, 7-methoxy-6-(2-methoxyethoxy)-2-methyl-N-{(1R)-1-[3-(1H-pyrazol-4-yl)phenyl]-ethyl}quinazolin-4-amine]	6.12	> 20	–	–
CC[C@@H](O)c1ccccc1-c1ccc(C(C)Nc2nc(C)nc3cc(OC)c(OC)cc23)s1 (stereo partly drawn) [Example 349, (1R)-1-[2-(5-{1-[(6,7-dimethoxy-2-methylquinazolin-4-yl)amino]ethyl}thiophen-2-yl)phenyl]propan-1-ol]	6.13	> 20	–	–
CCCCOc1cc2c(N[C@H](C)c3cccc(-c4cn[nH]c4)c3)nc(C)nc2cc1OC [Example 350, 6-butoxy-7-methoxy-2-methyl-N-{(1R)-1-[3-(1H-pyrazol-4-yl)phenyl]ethyl}quinazolin-4-amine]	6.07	> 20	–	–
COc1cc2nc(C)nc(N[C@H](C)c3cccc(-c4cn[nH]c4)c3)c2cc1OCCC(C)C [Example 351, 7-methoxy-2-methyl-6-(3-methylbutoxy)-N-{(1R)-1-[3-(1H-pyrazol-4-yl)phenyl]ethyl}quinazolin-4-amine]	5.88	> 20	–	–
COc1cc2nc(C)nc(NC(C)c3ccc(-c4ccccc4CCNC(=O)OC(C)(C)C)s3)c2cc1OC (stereo not shown) [Example 352, tert-butyl {2-[2-(5-{1-[(6,7-dimethoxy-2-methylquinazolin-4-yl)amino]ethyl}thiophen-2-yl)phenyl]ethyl}carbamate]	4.74	> 20	–	–
COc1cc2nc(C)nc(N[C@H](C)c3cccc(-c4cn[nH]c4)c3)c2cc1OC(C)C [Example 353, 7-methoxy-2-methyl-6-(propan-2-yloxy)-N-{(1R)-1-[3-(1H-pyrazol-4-yl)phenyl]ethyl}quinazolin-4-amine]	6.34	> 20	–	–
COc1cc2nc(C)nc(N[C@H](C)c3cccc(-c4cn[nH]c4)c3)c2cc1OCC1COC1 [Example 354, 7-methoxy-2-methyl-6-(oxetan-3-ylmethoxy)-N-{(1R)-1-[3-(1H-pyrazol-4-yl)phenyl]ethyl}quinazolin-4-amine]	6.17	> 20	–	–
CCOc1cc2c(N[C@H](C)c3cccc(-c4cn[nH]c4)c3)nc(C)nc2cc1OC [Example 355, 6-Ethoxy-7-methoxy-2-methyl-N-{(1R)-1-[3-(1H-pyrazol-4-yl)phenyl]ethyl}-quinazolin-4-amine]	6.15	> 20	–	–
CCOc1cc2c(N[C@H](C)c3cccc(-c4cnn(CC)c4)c3)nc(C)nc2cc1OC [Example 356, 6-ethoxy-N-{(1R)-1-[3-(1-ethyl-1H-pyrazol-4-yl)phenyl]ethyl}-7-methoxy-2-methylquinazolin-4-amine]	6.03	> 20	–	–
COc1cc2nc(C)nc(NC(C)c3ccc(-c4ccccc4-c4cn[nH]c4)s3)c2cc1OC (stereo not shown) [Example 361, 6,7-dimethoxy-2-methyl-N-[1-{5-[2-(1H-pyrazol-4-yl)phenyl]thiophen-2-yl}ethyl]-quinazolin-4-amine]	5.07	> 20	–	–
Cc1nc(N[C@H](C)c2cccc(Cl)c2)c2cc(Br)ccc2n1 [Example 363, 6-bromo-N-[(1R)-1-(3-chlorophenyl)ethyl]-2-methylquinazolin-4-amine]	4.76	> 20	–	–
COc1cc2nc(C)nc(NC(C)c3ccc(-c4ccccc4CNC4CCCC4)s3)c2cc1OC (stereo not shown) [Example 364, N-[1-(5-{2-[(cyclopentylamino)methyl]phenyl}thiophen-2-yl)ethyl]-6,7-dimethoxy-2-methylquinazolin-4-amine]	6.66	> 20	–	–
